Each structure is given as a SMILES string. In brackets after ≈: the same amount, converted by molar mass. Entries after “also recorded” stand apart in the source; their conditions may differ.

Usually solubility stands for the dissolved amount per volume that the medium holds. A low value points to a poorly soluble substance. The term AUC(0-inf) denotes the area under the concentration-time curve extrapolated to infinity. Usually AUC(0-t) stands for exposure summed from dosing to a finite time, without extrapolation to infinity. In general, Cmax refers to the maximum level reached in the sampled fluid or tissue. As usually defined, the MRT inf is a mean duration of stay, worked out from the concentration-time curve. In general, Tmax refers to the time at which the peak concentration occurs. As a reminder, the Vd is a proportionality between amount in the body and measured concentration, not a real space. As usually defined, the clearance is the rate of elimination divided by the concentration. By half-life is commonly meant how long it takes for the measured level to halve.

Data set [1] in a line: Solubility determination of propofol analogs in D2O by 1H NMR with DSS internal standard. As to conditions: for solubility: D2O, water, thermodynamic from solid.
Description: Thus the soapy-like solutions obtained were diluted until opalescent and diluted further until the opalescence visually disappeared.
Data set [2] can be described thus: Pharmacokinetics: concentration of propofol in rat plasma after intravenous infusion of each pro-drug, LC/MS/MS. To be noted: for Mean Concentration of Propofol in Rat Plasma After Intravenous Administration: analyte propofol from the administered compound; for pro-drug efficiency, release of propofol: releasing the propofol in a matter of minutes after infusion, rat. The procedure:
(§1) Blood samples were to be taken pre-dose, during dose and post dose at designated intervals, with the blood quickly processed and stored at −70° C. until analysis.
(§2) Formulations were prepared on the morning of the dosing day and each was passed through a 0.22 μm filter prior to being administered to animals. A standard dose of 0.168 mmol/Kg per analog was administered to each of the rats. […] Analog stability in the formulations was verified by preparing each formulation and harvesting 200 μL aliquots at 0, 1, 2 and 8 hr while standing at room temperature. After harvesting, each sample was immediately frozen in dry ice until analysis; concentrations of test compounds in the samples were examined by HPLC-UV.
(§3) The animals were surgically prepared with indwelling cannula, double cannulation in carotid artery and jugular vein for i.v. infusion. The anesthetic pentobarbital was used during the surgery, and the animals were allowed to recover 3-5 days after surgery before the formulation was dosed. The dose formulation was administered intravenously via the jugular vein cannula. The 16.8 μmol/mL formulation was administered i.v. at a rate of 1 mL/Kg/min for 10 min.
(§4) Approximately 0.20 mL blood was collected at each designated time point from carotid artery via a catheter. A total of 12 plasma samples were taken from each animal: 1 pre-dose; 2 during the dose (5 into the 10 min infusion and one just prior termination of the 10 min infusion) and 9 post-infusion at 2, 5, 15, 30 min and 1, 2, 3, 4, and 6 hr post-dose. All blood samples were transferred into plastic microcentrifuge tubes containing 5 μL of K2-EDTA (0.5M) as anti-coagulant and placed on ice until processed for plasma. Blood samples were processed for plasma by centrifugation at approximately 5° C. Plasma samples were then stored in 1.5 mL tubes, quick frozen over dry ice and kept at −70±10° C. until LC/MSMS analysis.
(§5) For each, a minimum of 6 standard point curve runs in duplicates, and minimum of 5 standards were back calculated to within ±20% of their nominal concentrations. The LLOQ of each test article in plasma was established and 6 QC samples were included in assay runs of samples to ensure assay performance.
(§6) Plasma concentration versus time data was analyzed by non-compartmental approaches using the WinNonlin software program (version 5.2, Pharsight, Mountain View, Calif.) and the pharmacokinetic parameters T½, CL, Vss, AUC(0-t), AUC(0-inf), MRT, and graphs of plasma concentration versus time calculated for each.

A short description of data set [3]: Pharmacokinetics: concentration of prodrug (or propofol) in rat plasma after intravenous infusion, LC/MS/MS. To be noted: for Mean concentration of prodrug and propofol in rat plasma after intravenous infusion administration: analyte = administered compound; for AUC(0-inf) / AUC(0-t) / Cmax / MRT inf / Tmax / Vd / clearance / half-life: male, Sprague-Dawley, rat, plasma, iv, 0.168 mmol/Kg. The protocol: as §1, §2, §3, §4, §5, §6

In data set [4] the test system is rats. Nature of the data set: Clinical observations of rats during administration of propofol analogs in the pharmacokinetics study. The procedure: as §1, §2, §3
[5] abbreviates: time post-10 min i.v. infusion, 0.168 mmol/Kg.

For `CC(C)c1cccc(C(C)C)c1OC(=O)OCCO[C@@H]1O[C@H](CO)C(O[C@H]2O[C@H](CO)[C@@H](O)[C@H](O)[C@H]2O)[C@H](O)[C@H]1O` (stereo partly shown) [Compound 24], in data set [1], the solubility was above 20 mM. Moreover, the “Mean Concentration of Propofol in Rat Plasma After Intravenous Administration” value (from here on “Mean Concentration of Propofol”) in data set [2] (Time 0 h (pre-dose)) was “BQL”. For the same compound, the “pro-drug efficiency, release of propofol” value in data set [2] was “very efficient pro-drugs”. Also, in data set [3] (Time 0 h (pre-dose)), the “Mean concentration of prodrug and propofol in rat plasma after intravenous infusion administration” value is reported as “BQL”. In addition, the “Mean concentration of prodrug and propofol in rat plasma after intravenous infusion administration” value in data set [3] (Time 2.166 h) is “BQL”. In data set [3] (Time 4.166 h), the “Mean concentration of prodrug and propofol in rat plasma after intravenous infusion administration” value is on record as “BQL”. Also, in data set [3] (Time 6.166 h), the “Mean concentration of prodrug and propofol in rat plasma after intravenous infusion administration” value is given as “BQL”. Also, in data set [3], the AUC(0-inf) was determined as 0.791 µM·h, the AUC(0-t) is 0.786 µM·h, the Cmax stood at 8.1 µM and the MRT inf came out at 12.4 min. Moreover, in data set [3], the Tmax is 8.4 min, the Vd was determined as 120 L/kg, the clearance turned out to be 5800 mL/min/kg and the half-life was 53.2 min. The “Clinical Observation: recovered at” value in data set [4] (setting [5]) is reported as “recovered at about 30 min”.

In data set [1], `CC(C)c1cccc(C(C)C)c1OC(=O)OCCO[C@H]1O[C@H](CO)[C@@H](O)[C@H](O)[C@H]1O` [Compound 32] returned a solubility of 13.3 mM (≈ 5700 µg/mL). Further, the “Mean Concentration of Propofol” value in data set [2] (Time 0 h (pre-dose)) is given as “BQL”. Besides, the “pro-drug efficiency, release of propofol” value in data set [2] is “very efficient pro-drugs”. For the same compound, the “Mean concentration of prodrug and propofol in rat plasma after intravenous infusion administration” value in data set [3] (Time 0 h (pre-dose)), in data set [3] (Time 0.25 h), in data set [3] (Time 0.417 h), in data set [3] (Time 0.667 h), in data set [3] (Time 1.166 h) and in data set [3] (Time 2.166 h) was “BQL” in each case. Further, the “Mean concentration of prodrug and propofol in rat plasma after intravenous infusion administration” value in data set [3] (Time 3.166 h), in data set [3] (Time 4.166 h) and in data set [3] (Time 6.166 h) was “BQL” in each case. Also, the AUC(0-t) in data set [3] was 0.000657 µM·h. Besides, in data set [3], the Cmax worked out at 0.00538 µM. Besides, the Tmax in data set [3] was 8.4 min. The “Clinical Observation: Rats soporous at” value in data set [4] (setting [5]) was “Rats soporous at about 3 min and”. Further, in data set [4] (setting [5]), the “Clinical Observation: recovered at” value was “recovered at about 26 min”.

Regarding `CC(C)c1cccc(C(C)C)c1OC(=O)OCCCO[C@H]1O[C@H](CO)[C@@H](O)[C@H](O)[C@H]1O` [Compound 33], the concentration in solution in data set [1] (solubility) came to 5.7 mM (≈ 2520 µg/mL). For the same compound, the “Mean Concentration of Propofol” value in data set [2] (Time 0 h (pre-dose)), in data set [2] (Time 4.166 h) and in data set [2] (Time 6.166 h) was “BQL” each time. In data set [2], the “pro-drug efficiency, release of propofol” value is recorded as “very efficient pro-drugs”. The “Mean concentration of prodrug and propofol in rat plasma after intravenous infusion administration” value in data set [3] (Time 0 h (pre-dose)), in data set [3] (Time 0.25 h), in data set [3] (Time 0.417 h), in data set [3] (Time 0.667 h), in data set [3] (Time 1.166 h) and in data set [3] (Time 2.166 h) was “BQL” each time. Moreover, the “Mean concentration of prodrug and propofol in rat plasma after intravenous infusion administration” value in data set [3] (Time 3.166 h), in data set [3] (Time 4.166 h) and in data set [3] (Time 6.166 h) was “BQL” each time. Besides, the AUC(0-t) in data set [3] came out at 0.00304 µM·h. Moreover, the maximum concentration (Cmax) in data set [3] is 0.0231 µM. In data set [3], the Tmax was 10.2 min. For the same compound, in data set [4] (setting [5]), the “Clinical Observation: Rats soporous at” value is given as “Rats soporous at about 3 min and”. Besides, in data set [4] (setting [5]), the “Clinical Observation: recovered at” value is reported as “recovered at about 30 min”.

As for `CC(C)c1cccc(C(C)C)c1OC(=O)OCCCO[C@@H]1O[C@H](CO)[C@@H](O)[C@H](O)[C@H]1O` [Compound 12], the solubility in data set [1] was determined as 5.5 mM (≈ 2430 µg/mL). For the same compound, the “Mean Concentration of Propofol” value in data set [2] (Time 0 h (pre-dose)), in data set [2] (Time 4.166 h) and in data set [2] (Time 6.166 h) was “BQL” each time. Besides, the “pro-drug efficiency, release of propofol” value in data set [2] is recorded as “very efficient pro-drugs”. Also, the “Mean concentration of prodrug and propofol in rat plasma after intravenous infusion administration” value in data set [3] (Time 0 h (pre-dose)), in data set [3] (Time 0.2 h), in data set [3] (Time 0.25 h), in data set [3] (Time 0.417 h), in data set [3] (Time 0.667 h) and in data set [3] (Time 1.166 h) was “BQL” throughout. The “Mean concentration of prodrug and propofol in rat plasma after intravenous infusion administration” value in data set [3] (Time 2.166 h), in data set [3] (Time 3.166 h), in data set [3] (Time 4.166 h) and in data set [3] (Time 6.166 h) was “BQL” throughout. The AUC(0-inf) in data set [3] came out at 0.00122 µM·h. Besides, the AUC(0-t) in data set [3] turned out to be 0.000773 µM·h. Moreover, the maximum concentration (Cmax) in data set [3] was determined as 0.00678 µM. Moreover, the MRT inf in data set [3] was determined as 6 min. Further, the Tmax in data set [3] amounted to 10.2 min. The half-life in data set [3] was 3.6 min. For the same compound, the “Clinical Observation: recovered at” value in data set [4] (setting [5]) is recorded as “recovered at about 30 min”.

In the case of `CC(C)c1cccc(C(C)C)c1O` [Propofol, 2,6-diisopropylphenol, reference compound], in data set [1], the solubility amounted to 1.1 mM (≈ 196 µg/mL). For the same compound, the “Mean Concentration of Propofol” value in data set [2] (Time 0 h (pre-dose)) was “BQL”. For the same compound, in data set [3], the AUC(0-inf) was 12.6 µM·h, the AUC(0-t) was 10.6 µM·h, the Cmax was found to be 31.9 µM and the MRT inf worked out at 209 min. In addition, in data set [3], the Tmax stood at 10.8 min, the Vd amounted to 61.2 L/kg, the clearance stood at 265 mL/min/kg and the half-life was 383 min. Further, the “Clinical Observation: Rats soporous at” value in data set [4] (setting [5]) was “Rats soporous at about 4 min and”. Also, in data set [4] (time post-10 min infusion, 5% cremophor vehicle), the “Clinical Observation: recovered at” value is recorded as “recovered at about 1.5 hr”.

As to `CC(C)c1cccc(C(C)C)c1OC(=O)NCCO[C@@H]1O[C@H](CO)[C@@H](O)[C@H](O)[C@H]1O` [Compound 17], in data set [1], the solubility is 1.6 mM (≈ 684 µg/mL). Moreover, the “water solubility (in words)” value in data set [1] (reason for cosolvent in the dose formulation) is listed as “poor water solubility”. In addition, the “Mean Concentration of Propofol” value in data set [2] (Time 0 h (pre-dose)) is given as “BQL”. The “Mean Concentration of Propofol” value in data set [2] (Time 2.166 h) is reported as “BQL”. Besides, in data set [2] (Time 3.166 h), the “Mean Concentration of Propofol” value is reported as “BQL”. In addition, the “Mean Concentration of Propofol” value in data set [2] (Time 4.166 h) was “BQL”. In data set [2] (Time 6.166 h), the “Mean Concentration of Propofol” value was “BQL”. The “Mean concentration of prodrug and propofol in rat plasma after intravenous infusion administration” value in data set [3] (Time 0 h (pre-dose)) is recorded as “BQL”. Also, in data set [3], the AUC(0-inf) was found to be 71.8 µM·h, the AUC(0-t) came out at 61.6 µM·h, the Cmax amounted to 313 µM and the MRT inf was 16.6 min. In addition, in data set [3], the Tmax is 10.2 min, the Vd turned out to be 0.657 L/kg, the clearance worked out at 39.1 mL/min/kg and the half-life was 26.2 min. Also, the “Clinical Observation (adverse findings, individual rats)” value in data set [4] (times post-10 min infusion, vehicle 10% Tween80, cloudy) is “died at 15 min; also recorded: died at 1.5 h from hematuria”.

These data come from patent publication US20120295866A1, “Synthesis And Use Of Glycoside Pro-Drug Analogs” (Nutek Pharma Ltd., priority 2011, published 2012).
